Assay results: ChEMBL document CHEMBL2321799 (J Med Chem, 2013)

Assays:
[1] = biological target: T1, Ephrin type-A receptor 2 (Homo sapiens, UniProt P29317); test: Inhibition of ephrin-A1-Fc binding to EphA2-Fc receptor (unknown origin) after 1 hr by ELISA
[2] = biological target: T1, Ephrin type-A receptor 2; test: Antagonist activity at EphA2 in human PC3 cells assessed as inhibition of ephrin-A1-Fc-stimulated EphA2 phosphorylation pretreated for 20 mins by sandwich ELISA; format: cell-based, PC-3
[3] = biological target: T2, Ephrin type-B receptor 1 (Homo sapiens, UniProt P54762); test: Displacement of ephrin-B1-Fc from EphB1 receptor Fc ectodomain (unknown origin) after 1 hr by ELISA
T2 sequence (P54762 whole entry): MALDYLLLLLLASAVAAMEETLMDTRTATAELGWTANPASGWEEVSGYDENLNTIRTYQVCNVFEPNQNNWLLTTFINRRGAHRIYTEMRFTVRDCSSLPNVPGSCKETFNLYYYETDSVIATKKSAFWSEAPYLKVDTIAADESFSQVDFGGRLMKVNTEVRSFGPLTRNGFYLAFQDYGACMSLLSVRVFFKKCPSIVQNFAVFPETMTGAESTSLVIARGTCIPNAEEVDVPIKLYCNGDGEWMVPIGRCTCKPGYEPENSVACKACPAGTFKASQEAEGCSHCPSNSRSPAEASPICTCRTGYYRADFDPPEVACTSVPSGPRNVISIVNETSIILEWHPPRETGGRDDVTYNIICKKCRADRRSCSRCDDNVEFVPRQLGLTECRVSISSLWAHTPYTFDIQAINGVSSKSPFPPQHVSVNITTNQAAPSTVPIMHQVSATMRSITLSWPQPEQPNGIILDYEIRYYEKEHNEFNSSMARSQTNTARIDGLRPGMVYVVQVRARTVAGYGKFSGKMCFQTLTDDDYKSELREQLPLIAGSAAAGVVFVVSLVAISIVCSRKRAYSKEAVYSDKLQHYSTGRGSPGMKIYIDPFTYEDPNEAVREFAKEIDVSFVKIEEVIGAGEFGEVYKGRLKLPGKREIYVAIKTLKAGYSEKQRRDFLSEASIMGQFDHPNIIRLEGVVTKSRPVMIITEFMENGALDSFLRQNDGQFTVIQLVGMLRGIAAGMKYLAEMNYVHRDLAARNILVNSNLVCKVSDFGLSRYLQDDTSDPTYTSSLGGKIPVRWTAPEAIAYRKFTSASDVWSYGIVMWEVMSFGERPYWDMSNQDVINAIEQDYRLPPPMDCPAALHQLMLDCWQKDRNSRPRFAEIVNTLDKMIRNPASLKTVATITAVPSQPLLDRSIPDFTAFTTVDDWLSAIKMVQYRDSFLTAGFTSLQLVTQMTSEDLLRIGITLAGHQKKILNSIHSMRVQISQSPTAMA

[4] = biological target: T3, Ephrin type-B receptor 4 (Homo sapiens, UniProt P54760); test: Displacement of ephrin-B1-Fc from EphB4 receptor Fc ectodomain (unknown origin) after 1 hr by ELISA
T3 sequence (P54760 whole entry): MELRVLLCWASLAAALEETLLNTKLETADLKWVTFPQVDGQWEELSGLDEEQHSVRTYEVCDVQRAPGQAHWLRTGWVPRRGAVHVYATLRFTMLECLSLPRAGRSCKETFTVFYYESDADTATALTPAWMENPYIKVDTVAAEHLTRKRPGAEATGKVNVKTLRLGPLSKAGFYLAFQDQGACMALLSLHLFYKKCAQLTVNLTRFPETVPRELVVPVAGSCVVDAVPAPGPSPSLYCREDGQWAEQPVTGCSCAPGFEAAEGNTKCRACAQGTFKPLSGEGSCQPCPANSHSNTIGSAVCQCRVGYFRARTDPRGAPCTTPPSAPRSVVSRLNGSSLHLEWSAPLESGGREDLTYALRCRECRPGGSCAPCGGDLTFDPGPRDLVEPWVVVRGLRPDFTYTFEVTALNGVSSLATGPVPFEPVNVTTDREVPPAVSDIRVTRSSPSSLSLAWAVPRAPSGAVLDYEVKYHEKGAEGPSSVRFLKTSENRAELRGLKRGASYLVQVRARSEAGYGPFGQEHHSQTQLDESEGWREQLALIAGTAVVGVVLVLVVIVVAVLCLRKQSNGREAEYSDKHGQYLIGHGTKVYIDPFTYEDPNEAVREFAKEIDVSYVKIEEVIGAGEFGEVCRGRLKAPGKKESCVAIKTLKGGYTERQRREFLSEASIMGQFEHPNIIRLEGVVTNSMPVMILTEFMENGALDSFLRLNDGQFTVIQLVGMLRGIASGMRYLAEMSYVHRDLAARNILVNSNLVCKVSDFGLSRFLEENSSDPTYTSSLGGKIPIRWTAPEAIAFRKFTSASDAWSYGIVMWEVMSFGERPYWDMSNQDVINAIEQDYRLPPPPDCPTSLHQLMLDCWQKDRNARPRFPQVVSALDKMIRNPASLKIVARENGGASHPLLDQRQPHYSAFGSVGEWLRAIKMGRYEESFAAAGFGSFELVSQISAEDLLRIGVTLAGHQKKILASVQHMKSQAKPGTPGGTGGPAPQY

[5] = biological target: Ephrin type-A receptor 4 (Homo sapiens, UniProt P54764); test: Displacement of ephrin-A1-Fc from EphA4 receptor Fc ectodomain (unknown origin) after 1 hr by ELISA
Sequence of Ephrin type-A receptor 4 (P54764 whole entry, the tested form may be a part): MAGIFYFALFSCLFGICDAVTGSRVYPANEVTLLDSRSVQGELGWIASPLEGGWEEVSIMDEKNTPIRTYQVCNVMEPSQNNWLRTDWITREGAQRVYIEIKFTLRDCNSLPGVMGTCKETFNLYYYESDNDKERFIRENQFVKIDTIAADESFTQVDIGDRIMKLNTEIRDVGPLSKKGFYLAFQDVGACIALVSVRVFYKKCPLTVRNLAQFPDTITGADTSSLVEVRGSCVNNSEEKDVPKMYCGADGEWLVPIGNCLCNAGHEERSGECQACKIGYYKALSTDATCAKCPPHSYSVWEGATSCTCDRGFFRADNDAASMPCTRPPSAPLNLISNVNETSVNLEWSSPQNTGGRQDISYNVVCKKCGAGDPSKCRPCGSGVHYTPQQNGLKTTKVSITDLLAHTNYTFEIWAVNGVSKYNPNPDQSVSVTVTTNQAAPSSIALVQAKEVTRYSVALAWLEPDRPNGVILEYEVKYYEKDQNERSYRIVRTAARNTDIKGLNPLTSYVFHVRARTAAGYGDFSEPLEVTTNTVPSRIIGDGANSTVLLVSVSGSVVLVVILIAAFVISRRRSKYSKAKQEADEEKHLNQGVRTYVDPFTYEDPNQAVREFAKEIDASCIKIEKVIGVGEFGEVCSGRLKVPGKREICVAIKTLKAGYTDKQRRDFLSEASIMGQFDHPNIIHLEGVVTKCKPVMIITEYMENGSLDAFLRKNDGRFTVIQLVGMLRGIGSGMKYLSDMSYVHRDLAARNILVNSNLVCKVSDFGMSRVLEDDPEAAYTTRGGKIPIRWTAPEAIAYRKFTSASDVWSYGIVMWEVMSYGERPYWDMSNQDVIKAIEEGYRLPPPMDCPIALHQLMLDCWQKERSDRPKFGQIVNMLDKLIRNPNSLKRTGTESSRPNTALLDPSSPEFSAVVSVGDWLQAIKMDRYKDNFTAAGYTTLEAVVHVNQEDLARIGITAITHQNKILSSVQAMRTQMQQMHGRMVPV

[6] = biological target: T4, Ephrin type-B receptor 6 (Homo sapiens, UniProt O15197); test: Displacement of ephrin-B1-Fc from EphB6 receptor Fc ectodomain (unknown origin) after 1 hr by ELISA
T4 sequence (O15197 whole entry): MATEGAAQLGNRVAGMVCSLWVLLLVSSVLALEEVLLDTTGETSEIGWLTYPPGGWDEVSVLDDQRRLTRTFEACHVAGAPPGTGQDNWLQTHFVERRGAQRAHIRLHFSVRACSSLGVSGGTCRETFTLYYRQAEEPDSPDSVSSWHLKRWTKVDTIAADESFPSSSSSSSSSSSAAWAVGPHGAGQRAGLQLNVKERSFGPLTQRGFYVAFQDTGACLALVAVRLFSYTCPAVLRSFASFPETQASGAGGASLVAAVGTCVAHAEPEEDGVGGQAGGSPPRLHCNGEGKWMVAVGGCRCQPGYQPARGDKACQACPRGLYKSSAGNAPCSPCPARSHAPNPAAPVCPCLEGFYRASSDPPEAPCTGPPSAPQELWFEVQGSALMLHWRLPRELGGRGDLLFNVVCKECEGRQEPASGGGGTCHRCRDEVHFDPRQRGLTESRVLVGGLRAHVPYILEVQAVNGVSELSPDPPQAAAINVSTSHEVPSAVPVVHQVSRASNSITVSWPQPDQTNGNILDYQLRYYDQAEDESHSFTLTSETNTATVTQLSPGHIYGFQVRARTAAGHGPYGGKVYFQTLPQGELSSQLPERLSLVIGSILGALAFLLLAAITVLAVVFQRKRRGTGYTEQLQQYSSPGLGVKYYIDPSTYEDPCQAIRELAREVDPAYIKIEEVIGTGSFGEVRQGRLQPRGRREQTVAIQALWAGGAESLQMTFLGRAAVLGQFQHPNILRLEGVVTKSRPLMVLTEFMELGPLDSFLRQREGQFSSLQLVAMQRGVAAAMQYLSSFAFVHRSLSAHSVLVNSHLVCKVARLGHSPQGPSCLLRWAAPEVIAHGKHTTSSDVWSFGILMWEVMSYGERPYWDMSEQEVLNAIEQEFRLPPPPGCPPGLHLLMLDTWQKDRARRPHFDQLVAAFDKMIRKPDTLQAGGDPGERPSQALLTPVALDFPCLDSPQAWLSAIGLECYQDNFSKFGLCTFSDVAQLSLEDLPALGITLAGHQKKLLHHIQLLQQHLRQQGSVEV

[7] = biological target: Ephrin type-A receptor 5 (Homo sapiens, UniProt P54756); test: Displacement of ephrin-A1-Fc from EphA5 receptor Fc ectodomain (unknown origin) after 1 hr by ELISA
Sequence of Ephrin type-A receptor 5 (P54756 whole entry, the tested form may be a part): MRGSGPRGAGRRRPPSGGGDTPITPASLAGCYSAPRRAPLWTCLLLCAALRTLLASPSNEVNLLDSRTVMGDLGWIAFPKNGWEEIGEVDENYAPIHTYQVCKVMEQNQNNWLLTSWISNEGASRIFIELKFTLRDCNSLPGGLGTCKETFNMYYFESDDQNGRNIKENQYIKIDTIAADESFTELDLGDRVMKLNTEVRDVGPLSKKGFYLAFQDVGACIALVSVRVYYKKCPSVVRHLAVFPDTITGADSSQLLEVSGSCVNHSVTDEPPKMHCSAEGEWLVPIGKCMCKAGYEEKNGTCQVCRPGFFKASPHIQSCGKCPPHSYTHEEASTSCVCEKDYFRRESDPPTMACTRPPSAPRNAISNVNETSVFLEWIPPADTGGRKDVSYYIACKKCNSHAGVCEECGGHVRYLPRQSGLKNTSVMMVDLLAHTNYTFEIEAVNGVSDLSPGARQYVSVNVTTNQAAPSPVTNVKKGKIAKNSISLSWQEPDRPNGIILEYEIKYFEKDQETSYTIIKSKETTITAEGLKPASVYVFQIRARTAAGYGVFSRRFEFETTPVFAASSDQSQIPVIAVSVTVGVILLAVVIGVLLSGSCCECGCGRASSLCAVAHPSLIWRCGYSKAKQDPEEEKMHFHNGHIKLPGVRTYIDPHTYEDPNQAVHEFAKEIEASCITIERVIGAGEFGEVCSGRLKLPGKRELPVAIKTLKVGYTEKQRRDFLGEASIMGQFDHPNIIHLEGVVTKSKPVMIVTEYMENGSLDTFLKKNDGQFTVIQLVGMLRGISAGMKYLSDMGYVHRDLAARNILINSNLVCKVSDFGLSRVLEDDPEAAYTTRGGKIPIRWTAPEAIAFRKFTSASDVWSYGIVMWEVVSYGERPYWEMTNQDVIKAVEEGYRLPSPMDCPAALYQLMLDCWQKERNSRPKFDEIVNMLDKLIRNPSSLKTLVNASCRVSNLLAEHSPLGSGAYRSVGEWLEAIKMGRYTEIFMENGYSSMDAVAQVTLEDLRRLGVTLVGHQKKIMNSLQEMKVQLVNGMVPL

[8] = biological target: T5, Ephrin type-A receptor 8 (Homo sapiens, UniProt P29322); test: Displacement of ephrin-A1-Fc from EphA8 receptor Fc ectodomain (unknown origin) after 1 hr by ELISA
T5 sequence (P29322 whole entry): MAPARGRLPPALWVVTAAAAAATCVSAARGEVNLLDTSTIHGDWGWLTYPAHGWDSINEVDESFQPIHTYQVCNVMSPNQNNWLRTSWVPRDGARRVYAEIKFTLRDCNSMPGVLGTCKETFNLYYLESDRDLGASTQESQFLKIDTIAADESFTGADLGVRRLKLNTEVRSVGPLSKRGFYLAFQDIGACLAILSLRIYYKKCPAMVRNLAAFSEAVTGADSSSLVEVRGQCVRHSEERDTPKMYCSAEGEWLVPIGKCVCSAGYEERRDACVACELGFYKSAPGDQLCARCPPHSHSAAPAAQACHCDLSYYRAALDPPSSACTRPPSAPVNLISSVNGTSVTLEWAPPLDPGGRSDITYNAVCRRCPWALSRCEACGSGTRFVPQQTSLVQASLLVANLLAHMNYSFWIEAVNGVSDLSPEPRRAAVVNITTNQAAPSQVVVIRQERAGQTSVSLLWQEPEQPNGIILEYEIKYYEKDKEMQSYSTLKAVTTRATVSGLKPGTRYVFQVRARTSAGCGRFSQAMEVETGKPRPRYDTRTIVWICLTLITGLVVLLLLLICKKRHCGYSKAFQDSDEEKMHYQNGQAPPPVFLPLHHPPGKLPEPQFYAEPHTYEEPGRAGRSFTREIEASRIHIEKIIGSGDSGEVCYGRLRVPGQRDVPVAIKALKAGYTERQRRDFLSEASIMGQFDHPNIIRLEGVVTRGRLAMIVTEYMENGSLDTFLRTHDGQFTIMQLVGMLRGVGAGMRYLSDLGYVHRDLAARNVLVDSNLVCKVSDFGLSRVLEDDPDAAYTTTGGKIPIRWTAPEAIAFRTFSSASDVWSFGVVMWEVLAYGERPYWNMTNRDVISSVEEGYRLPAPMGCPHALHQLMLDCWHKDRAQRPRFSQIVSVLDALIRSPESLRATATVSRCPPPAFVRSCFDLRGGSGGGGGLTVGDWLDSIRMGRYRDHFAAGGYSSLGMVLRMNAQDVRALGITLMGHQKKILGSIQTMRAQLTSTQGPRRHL

[9] = biological target: Ephrin type-A receptor 7 (Homo sapiens, UniProt Q15375); test: Displacement of ephrin-A1-Fc from EphA7 receptor Fc ectodomain (unknown origin) after 1 hr by ELISA
Sequence of Ephrin type-A receptor 7 (Q15375 whole entry, the tested form may be a part): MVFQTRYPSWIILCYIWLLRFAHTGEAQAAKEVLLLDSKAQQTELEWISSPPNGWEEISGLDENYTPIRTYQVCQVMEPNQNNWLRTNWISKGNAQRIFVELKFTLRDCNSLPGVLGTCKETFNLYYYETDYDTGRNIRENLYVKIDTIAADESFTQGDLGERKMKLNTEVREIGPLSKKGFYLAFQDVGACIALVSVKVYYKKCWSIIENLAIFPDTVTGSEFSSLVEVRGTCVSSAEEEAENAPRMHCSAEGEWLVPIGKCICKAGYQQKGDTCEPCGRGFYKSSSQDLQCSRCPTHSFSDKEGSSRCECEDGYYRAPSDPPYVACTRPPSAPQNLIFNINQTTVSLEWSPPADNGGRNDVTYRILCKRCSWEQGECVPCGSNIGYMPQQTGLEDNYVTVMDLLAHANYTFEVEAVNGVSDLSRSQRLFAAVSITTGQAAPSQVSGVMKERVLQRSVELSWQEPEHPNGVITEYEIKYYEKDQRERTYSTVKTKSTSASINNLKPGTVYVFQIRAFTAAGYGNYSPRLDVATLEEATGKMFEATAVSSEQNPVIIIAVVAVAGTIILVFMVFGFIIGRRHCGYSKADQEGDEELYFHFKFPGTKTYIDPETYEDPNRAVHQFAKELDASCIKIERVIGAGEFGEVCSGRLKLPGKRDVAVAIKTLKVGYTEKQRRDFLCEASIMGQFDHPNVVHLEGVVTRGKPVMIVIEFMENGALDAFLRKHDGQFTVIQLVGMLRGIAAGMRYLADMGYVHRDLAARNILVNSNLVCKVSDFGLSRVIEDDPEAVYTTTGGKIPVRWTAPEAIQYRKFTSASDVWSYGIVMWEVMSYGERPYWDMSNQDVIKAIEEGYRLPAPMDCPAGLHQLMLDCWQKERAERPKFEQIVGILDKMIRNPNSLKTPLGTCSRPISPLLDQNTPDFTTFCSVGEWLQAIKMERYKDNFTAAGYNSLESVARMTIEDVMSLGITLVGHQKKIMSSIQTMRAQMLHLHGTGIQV

[10] = biological target: T6, Ephrin type-A receptor 6 (Homo sapiens, UniProt Q9UF33); test: Displacement of ephrin-A1-Fc from EphA6 receptor Fc ectodomain (unknown origin) after 1 hr by ELISA
T6 sequence (Q9UF33 whole entry): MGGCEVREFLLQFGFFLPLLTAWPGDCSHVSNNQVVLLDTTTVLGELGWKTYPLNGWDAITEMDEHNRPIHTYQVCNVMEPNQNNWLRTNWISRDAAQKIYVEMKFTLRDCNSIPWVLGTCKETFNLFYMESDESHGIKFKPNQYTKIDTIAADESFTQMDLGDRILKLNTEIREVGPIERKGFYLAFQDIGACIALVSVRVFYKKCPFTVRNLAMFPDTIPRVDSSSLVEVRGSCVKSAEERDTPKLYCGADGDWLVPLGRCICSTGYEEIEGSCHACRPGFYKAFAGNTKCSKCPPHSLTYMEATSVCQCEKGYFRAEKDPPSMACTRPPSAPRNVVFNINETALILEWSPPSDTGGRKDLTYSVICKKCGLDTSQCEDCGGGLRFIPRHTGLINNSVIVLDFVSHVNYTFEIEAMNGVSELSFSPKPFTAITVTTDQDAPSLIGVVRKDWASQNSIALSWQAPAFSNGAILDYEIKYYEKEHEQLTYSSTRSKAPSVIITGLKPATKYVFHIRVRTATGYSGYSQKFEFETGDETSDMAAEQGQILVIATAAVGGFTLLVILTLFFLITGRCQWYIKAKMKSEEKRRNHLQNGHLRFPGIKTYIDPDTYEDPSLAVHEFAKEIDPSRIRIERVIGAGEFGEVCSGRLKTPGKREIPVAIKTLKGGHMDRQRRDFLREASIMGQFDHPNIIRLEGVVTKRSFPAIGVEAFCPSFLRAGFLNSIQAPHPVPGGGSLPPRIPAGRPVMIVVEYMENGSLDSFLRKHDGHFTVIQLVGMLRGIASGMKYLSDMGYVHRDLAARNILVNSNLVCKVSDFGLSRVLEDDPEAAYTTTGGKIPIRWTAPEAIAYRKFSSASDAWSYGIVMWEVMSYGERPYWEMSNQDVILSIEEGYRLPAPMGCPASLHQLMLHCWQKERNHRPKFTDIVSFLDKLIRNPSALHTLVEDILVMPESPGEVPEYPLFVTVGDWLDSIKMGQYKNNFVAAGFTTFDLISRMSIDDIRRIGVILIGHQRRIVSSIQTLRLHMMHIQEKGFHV

[11] = test system: PC-3; test: Cytotoxicity against human PC3 cells assessed as LDH release at 25 to 100 uM after 2 hrs by ELISA; format: cell-based; conditions: pc-3, 2 h

T1 sequence (P29317 whole entry): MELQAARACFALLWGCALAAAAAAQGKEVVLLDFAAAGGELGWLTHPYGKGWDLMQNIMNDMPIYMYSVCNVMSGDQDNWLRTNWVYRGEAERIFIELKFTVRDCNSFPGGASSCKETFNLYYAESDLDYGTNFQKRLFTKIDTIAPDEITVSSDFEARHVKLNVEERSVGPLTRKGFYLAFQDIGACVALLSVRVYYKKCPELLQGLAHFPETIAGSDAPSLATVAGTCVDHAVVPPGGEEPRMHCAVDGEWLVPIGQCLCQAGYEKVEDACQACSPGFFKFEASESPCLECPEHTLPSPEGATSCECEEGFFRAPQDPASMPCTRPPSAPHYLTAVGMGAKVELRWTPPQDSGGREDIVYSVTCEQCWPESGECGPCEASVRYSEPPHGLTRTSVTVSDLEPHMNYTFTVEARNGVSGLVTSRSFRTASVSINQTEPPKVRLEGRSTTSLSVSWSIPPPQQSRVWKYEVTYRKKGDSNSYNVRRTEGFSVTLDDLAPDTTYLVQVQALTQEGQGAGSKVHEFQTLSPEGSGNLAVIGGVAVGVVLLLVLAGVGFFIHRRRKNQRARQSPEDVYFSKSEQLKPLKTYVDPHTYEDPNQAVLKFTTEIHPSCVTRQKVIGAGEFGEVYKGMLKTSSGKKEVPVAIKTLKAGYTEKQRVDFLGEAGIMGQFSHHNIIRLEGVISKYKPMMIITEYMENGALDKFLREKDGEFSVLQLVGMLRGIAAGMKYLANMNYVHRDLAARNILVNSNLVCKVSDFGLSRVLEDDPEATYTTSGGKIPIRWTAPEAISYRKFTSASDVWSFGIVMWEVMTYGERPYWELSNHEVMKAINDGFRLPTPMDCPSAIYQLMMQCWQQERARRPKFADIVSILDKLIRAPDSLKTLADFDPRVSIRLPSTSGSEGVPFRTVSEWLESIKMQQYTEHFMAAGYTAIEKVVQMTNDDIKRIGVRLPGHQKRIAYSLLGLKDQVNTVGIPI

C[C@H](CCC(=O)N[C@@H](CC(N)=O)C(=O)O)[C@H]1CC[C@H]2[C@@H]3CC[C@@H]4C[C@H](O)CC[C@]4(C)[C@H]3CC[C@]12C
IC50 [1]: > 316 µM

C[C@H](CCC(=O)NCC(=O)O)[C@H]1CC[C@H]2[C@@H]3CC[C@@H]4C[C@H](O)CC[C@]4(C)[C@H]3CC[C@]12C [LITHOGLYCOCHOLATE]
IC50 [1]: 49 µM | IC50 [2]: 138 µM

C[C@H](CCC(=O)N[C@@H](CC(=O)O)C(=O)O)[C@H]1CC[C@H]2[C@@H]3CC[C@@H]4C[C@H](O)CC[C@]4(C)[C@H]3CC[C@]12C
IC50 [1]: > 316 µM

C[C@H](CCC(=O)N[C@@H](Cc1c[nH]c2ccccc12)C(=O)O)[C@H]1CC[C@H]2[C@@H]3CC[C@@H]4C[C@H](O)CC[C@]4(C)[C@H]3CC[C@]12C
IC50 [3]: 3.8 µM | IC50 [4]: 4.4 µM | IC50 [5]: 2.7 µM | IC50 [6]: 5.8 µM | IC50 [7]: 2.4 µM | IC50 [8]: 1.5 µM | IC50 [9]: 2.1 µM | IC50 [10]: 1.5 µM | Activity [11]: Non-toxic

C[C@H](CCC(=O)N[C@H](CC(=O)O)C(=O)O)[C@H]1CC[C@H]2[C@@H]3CC[C@@H]4C[C@H](O)CC[C@]4(C)[C@H]3CC[C@]12C
IC50 [1]: > 316 µM

C[C@H](CCC(=O)N[C@H](CC(N)=O)C(=O)O)[C@H]1CC[C@H]2[C@@H]3CC[C@@H]4C[C@H](O)CC[C@]4(C)[C@H]3CC[C@]12C
IC50 [1]: > 316 µM

CC(=O)CNC(=O)CC[C@@H](C)[C@H]1CC[C@H]2[C@@H]3CC[C@@H]4C[C@H](O)CC[C@]4(C)[C@H]3CC[C@]12C
IC50 [1]: > 316 µM
